Measured values published in US20260001928A1 (CORTERIA PHARMACEUTICALS, priority 2022, published 2026).
*1 amine or outer side, *2 acyl side, *3 side chain or, on linkers, in order; H or OH if unused. Where a SMILES comes first, the peptide text is derived from it. Side-chain parts run from the residue outwards. [ ]: non-standard residue; d: D form. The star is where a group is joined. C16 diacid = O=C(O)CCCCCCCCCCCCCCC(=O)*; γGlu = O=C(O)[C@H](CCC(=O)[*:2])N[*:1]

Experiment: In vitro subcutaneous tissue supernatant (SCts) stability and metabolite identification, rat
Assay type: in vitro ADME
Details: in vitro soft spot identification, rat SCts
Method: In vitro metabolic stability in subcutaneous tissue supernatant (SCts) was studied in male Sprague Dawley rats. Test compounds were incubated […] for 2 hours at 37° C.
Software aided in vitro metabolite identification on SCts stability samples was performed using either Metabolite Pilot (Sciex) or Biopharma Finder (Thermo). In addition, metabolite identification using Metabolite Pilot was performed on plasma samples of Comp Y following SC administration to rat at 1 mg/kg.

major metabolic soft spot, in vitro: N-terminus
Compound: CC[C@H](C)[C@H](N)C(=O)N[C@H](C(=O)N[C@@H](CC(C)C)C(=O)N[C@@H](CO)C(=O)N[C@@H](CC(C)C)C(=O)N[C@@H](CC(=O)O)C(=O)N[C@@H](C(=O)N1CCC[C@H]1C(=O)N[C@H](C(=O)N[C@@H](CCCCN)C(=O)N[C@@H](CC(C)C)C(=O)N[C@@H](CCCCNC(=O)CC[C@H](NC(=O)CCCCCCCCCCCCCCC(=O)O)C(=O)O)C(=O)N[C@@H](CCC(N)=O)C(=O)N[C@H](C(=O)N[C@@H](CC(C)C)C(=O)N[C@@H](CC(C)C)C(=O)N[C@@H](CCCCN)C(=O)N[C@@H](CCC(N)=O)C(=O)N[C@@H](CCC(=O)O)C(=O)N[C@@H](CCCNC(=N)N)C(=O)N[C@@H](CCC(N)=O)C(=O)N[C@@H](CCCCN)C(=O)N[C@@H](CCCCN)C(=O)N[C@@H](CCC(N)=O)C(=O)N[C@@H](CCCNC(=N)N)C(=O)N[C@@H](CCC(=O)O)C(=O)N[C@@H](CCC(N)=O)C(=O)N[C@@H](C)C(=O)N[C@@H](CCC(=O)O)C(=O)N[C@@H](CCCCN)C(=O)N[C@@H](CC(N)=O)C(=O)N[C@@H](CCCCN)C(=O)N[C@@H](CCC(N)=O)C(=O)N[C@H](C(=O)N[C@@H](CC(C)C)C(=O)N[C@@H](CCC(=O)O)C(=O)N[C@@H](CCC(N)=O)C(=O)N[C@H](C(N)=O)C(C)C)[C@@H](C)CC)[C@@H](C)CC)[C@@H](C)CC)C(C)C)C(C)C [SEQ ID No. 151, reference compound] (H-IVLSLD[dV]PIKLK([γGlu-C16 diacid])QILLKQERQKKQREQAEKNKQILEQV-NH2)
